{"source": "patent US5965619A", "about": "“Method for treating patients having precancerous lesions with substituted indene derivatives” (Cell Pathways Inc., priority 1997, dated 1999)", "key": {"[1]": {"test_system": "human colon carcinoma cell line, HT-29", "assay": "HT-29 tumor cell growth inhibition, Sulforhodamine B (SRB) protein binding assay", "assay_type": "cell-based", "settings": "144 h, six days continuous exposure", "method": "These compounds were assayed for their effect on the human colon carcinoma cell line, HT-29 obtained from ATCC, (Rockville, Md.) to ascertain the degree of growth inhibition. Growth inhibition of this cell line is indicative of a benefit on precancerous lesions and neoplasms. The cell line and growth assay employed for these experiments is well characterized, and is used by the United States National Cancer Institute in its screening program for new anti-cancer drugs.\nDrug stock solutions were made in 100% DMSO then diluted with RPMI media for cell culture testing. All drug solutions were prepared fresh on the day of testing. The cultured cells were obtained at passage #118 and grown in RPMI media supplemented with 5% fetal calf serum, and 2 mM glutamine, 100 U/ml penicillin, 100 U/ml streptomycin, and 0.25 μg/ml amphotericin. The cultures were maintained in a humidified atmosphere of 95% air and 5% CO2 at 37° C. The cultures were passaged at preconfluent densities using a solution of 0.05% trypsin and 0.53 mM EDTA. All experiments involved HT-29 cells between passages 120 and 140. Cells were plated at the following densities to obtain cultures used for the experiments: 500 cells/well for 96 well flat-bottom microtiter plates, 1×10^6 cells per 25 cm^2 flask.\nTumor cell growth inhibition was assessed using the Sulforhodamine B (SRB) protein binding assay. In this assay, tumor cells were plated in 96-well plates and treated with drug-containing media for six days (continuous exposure). For each plate, 6 wells were designated as no treatment controls, six wells as vehicle (0.1% DMSO) controls, and the remaining wells for drug dilutions with six wells per drug concentration. At the end of the exposure period, the cells were fixed and stained with sulforhodamine B, a protein binding dye. The dye was then solubilized, and the optical density of the resulting solution was determined on a 96-well plate reader. The mean dye intensity of the treated wells was then divided by the mean dye intensity in the control wells (6 wells of each) to determine the effect of the drug on the cells. Dye intensity is proportional to the number of cells or amount of protein per well. The resultant \"percent inhibition\" value then represents the degree of growth inhibition caused by the drug.\nFor each experiment, an IC50 value was determined and used for comparative purposes. This value is equivalent to the concentration of drug needed to inhibit tumor cell growth by 50%. IC50 values were obtained graphically by connecting the mean values for each drug concentration tested. Each experiment included at least six wells per drug concentration. Concentration was plotted on a log scale on the X-axis."}, "purified COX": {"test_system": "purified COX", "assay": "Cyclooxygenase (COX) inhibition, purified COX from ram seminal vesicles", "assay_type": "biochemical", "settings": "100 μM dose; arachidonic acid 100 uM, 2.0 min at 37° C.", "method": "Compounds of this invention, as well as several others (sce Table 2 below), were evaluated to determine whether they inhibited the production of prostaglandin according to the procedure below. COX is involved in the formation of prostaglandins and thromboxane by the oxidative metabolism of arachidonic acid. […] Briefly, purified COX was incubated with arachidonic acid (100 uM) for 2.0 min at 37° C. in the presence or absence of test compounds. The assay was terminated by the addition of TCA, and COX activity was determined by absorbance at 530 nm."}, "[2]": {"test_system": "DMBA-Induced Mammary Lesions", "assay": "Mouse mammary gland organ culture, DMBA-induced mammary lesions", "assay_type": "cell-based, mouse (female BALB/c)", "settings": "15 glands per group", "method": "The compound of Example No. 17(d) was also tested for its ability to inhibit the incidence of mammary lesions in an organ culture system. This mouse mammary gland organ culture technique has been successfully used by other investigators to study the effects of known cancer-chemopreventativeagents such as retinoids and selenium.\nFemale BALB/c mice, 28 days old, were treated for nine days with a combination of 1 μg of estradiol and 1 mg of progesterone daily, in order to prime the glands to be responsive to hormones in vitro. The animals were sacrificed and thoracic mammary glands were excised aseptically and incubated for ten days in growth media supplemented with growth-promoting hormones: insulin, prolactin, and hydrocortisone, at 5 μg/ml each and aldosterone at 1 μg/ml. A twenty-four hour treatment of 7,12-dimethylbenz(a)anthracene (DMBA, 2 μg/ml) was carried out between days three and four to induce the formation of mammary lesions. Fully developed glands were deprived of prolactin, hydrocortisone, and aldosterone for 14 days, resulting in the regression of the glands but not the mammary lesions.\nIn order to evaluate the effects of Compound No. 17(d), it was dissolved in DMSO and added to the culture media supplemented for the duration of the culture period. At the end of the culture period, the glands were fixed in 10% formalin, stained with alum carmine, and mounted on glass slides. The incidence of forming mammary lesions is the ratio of the glands with mammary lesions and glands without lesions. The incidence of mammary lesions in compound 17(d) treated glands was compared with that of the untreated glands.\nThe extent of the area occupied by the mammary lesions was quantitated by projecting an image of the gland onto a digitation pad. The area covered by the gland was traced on the pad and considered as 100% of the area, The space covered by each of the unregressed structures was also outlined on the digitization pad and quantitated by the computer."}, "prostaglandin synthesis": {"test_system": "prostaglandin synthesis", "settings": "cited from earlier work"}, "precancerous lesions": {"test_system": "precancerous lesions", "settings": "cited from earlier work"}, "colonic polyps": {"test_system": "colonic polyps", "settings": "cited from earlier work"}}}
{"smiles": "COc1ccc(/C=C2/C(C)=C(CC(=O)O)c3cc(F)ccc32)cc1", "note": "[16(e), (Z)-5-fluoro-2-methyl-1-(p-methoxy-benzylidene)-3-indenylacetic acid]", "values": [{"measurement": "IC50", "setting": "[1]", "value": 29, "unit": "µM"}]}
{"smiles": "CC1=C(CC(=O)O)c2cc(F)ccc2/C1=C\\c1ccccc1", "note": "[17(a), (Z)-5-fluoro-2-methyl-1-benzylidene-3-indenylacetic acid]", "values": [{"measurement": "IC50", "setting": "[1]", "value": 40, "unit": "µM"}]}
{"smiles": "CC1=C(CC(=O)O)c2cc(F)ccc2/C1=C\\c1ccc(Cl)cc1", "note": "[17(b), (Z)-5-fluoro-2-methyl-1-(4-chlorobenzylidene)-3-indenylacetic acid]", "values": [{"measurement": "IC50", "setting": "[1]", "value": 58, "unit": "µM"}]}
{"smiles": "COc1cc(OC)c(/C=C2/C(C)=C(CC(=O)O)c3cc(F)ccc32)c(OC)c1", "note": "[17(e), (Z)-5-fluoro-2-methyl-1-(2,4,6-trimethoxybenzylidene)-3-indenylacetic acid]", "values": [{"measurement": "IC50", "setting": "[1]", "value": 61, "unit": "µM"}]}
{"smiles": "COc1ccc(/C=C2/C(C)=C(CC(=O)O)c3cc(F)ccc32)c(OC)c1OC", "note": "[17(f), (Z)-5-fluoro-2-methyl-1-(2,3,4-trimethoxybenzylidene)-3-indenylacetic acid]", "values": [{"measurement": "IC50", "setting": "[1]", "value": 40, "unit": "µM"}]}
{"smiles": "COc1cc(OC)c(OC)cc1/C=C1/C(C)=C(CC(=O)O)c2cc(F)ccc21", "note": "[17(g), (Z)-5-fluoro-2-methyl-1-(2,4,5-trimethoxybenzylidene)-3-indenylacetic acid]", "values": [{"measurement": "IC50", "setting": "[1]", "value": 40, "unit": "µM"}]}
{"smiles": "CC1=C(CC(=O)O)c2cc(F)ccc2/C1=C\\c1c(Cl)cccc1Cl", "note": "[17(h), (Z)-5-fluoro-2-methyl-1-(2,6-dichlorobenzylidene)-3-indenylacetic acid]", "values": [{"measurement": "IC50", "setting": "[1]", "value": 31, "unit": "µM"}]}
{"smiles": "COc1cc(/C=C2/C(C)=C(CC(=O)O)c3cc(F)ccc32)cc(OC)c1OC", "note": "[Example 17(d), (Z)-5-fluoro-2-methyl-1-(3,4,5-trimethoxybenzylidene)-3-indenylacetic acid]", "values": [{"measurement": "IC50", "setting": "[1]", "value": 39, "unit": "µM"}, {"measurement": "% Inhibition", "setting": "purified COX", "value": "No inhibition"}, {"measurement": "Glands with Lesions", "setting": "[2]; 10 μm", "value": 5}, {"measurement": "Percent Incidence", "setting": "[2]; 10 μm", "value": 33.33, "unit": "%"}, {"measurement": "Glands with Lesions", "setting": "[2]; 100 μm", "value": 0}, {"measurement": "Percent Incidence", "setting": "[2]; 100 μm", "value": 0.00, "unit": "%"}]}
{"smiles": "CSc1ccc(/C=C2/C(C)=C(CC(=O)O)c3cc(F)ccc32)cc1", "note": "[Sulindac Sulfide, reference compound]", "values": [{"measurement": "% Inhibition", "setting": "purified COX", "value": 86, "unit": "%"}, {"measurement": "activity as inhibitor of prostaglandin synthesis", "setting": "prostaglandin synthesis", "value": "active moiety as a prostaglandin synthesis inhibitor"}]}
{"smiles": "CC1=C(CC(=O)O)c2cc(F)ccc2/C1=C\\c1ccc(S(C)(=O)=O)cc1", "note": "[sulfone]", "values": [{"measurement": "activity as inhibitor of prostaglandin synthesis", "setting": "prostaglandin synthesis", "value": "inactive as an inhibitor of prostaglandin synthesis"}, {"measurement": "activity as inhibitor of precancerous lesions", "setting": "precancerous lesions", "value": "active as an inhibitor of precancerous lesions"}]}
{"smiles": "CC1=C(CC(=O)O)c2cc(F)ccc2/C1=C\\c1ccc([S+](C)[O-])cc1", "note": "(stereo not drawn) [sulindac]", "values": [{"measurement": "effect on polyps when patients take the drug", "setting": "colonic polyps", "value": "Polyps virtually disappear"}]}
